In patent publication US20210085640A1, “ACYLATED CATECHIN POLYPHENOLS AND METHODS OF THEIR USE FOR THE TREATMENT OF CANCER” (Flagship Pioneering Innovations V, Inc., priority 2018, published 2021):

What was measured:
Assay type in all cases: cell-based
T24 bladder cancer cells = test: Cancer cell survival (CellTiter-Glo), T24; settings: Homo sapiens
How it was run: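 T24 cells seeded at 4×10^3 cells/well overnight, then exposed 72 h at 37 C, 5% CO2 to nine concentrations in triplicate. Survival measured by CellTiter-Glo luminescence relative to untreated and medium controls; IC50 derived.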

[1] = system: Daudi lymphoma cancer cells; test: Cancer cell survival (CellTiter-Glo), Daudi; settings: Homo sapiens, 72 h
How it was run: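 Daudi cells (4×10^3/well) were exposed for 72 h at 37 °C to nine concentrations of compound, added as 10× solutions spanning 1 μM–10 mM (fatty acids) or 100 nM–1 mM (others). CellTiter-Glo luminescence gave % survival versus untreated, medium-blank corrected; IC50 derived.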

MCF7 breast cancer cells = test: Cancer cell survival (CellTiter-Glo), MCF7; settings: Homo sapiens, 72 h
How it was run: (§1)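 Cells were seeded at 4×10^3 cells/well and left overnight at 37 C, 5% CO2, then exposed in triplicate to nine compound concentrations for 72 h. Dosing solutions were made at 10× final (1 μM-10 mM fatty acids, 100 nM-1 mM other compounds). CellTiter-Glo luminescence, normalised to untreated and medium-only wells, gave IC50.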

[2] = system: HCT 116 colorectal cancer cells; test: Cancer cell survival (CellTiter-Glo), HCT 116; settings: Homo sapiens, HCT 116 cells, 72 h
How it was run: as §1

A549 lung cancer cells = test: Cancer cell survival (CellTiter-Glo), A549; settings: Homo sapiens, 72 h
How it was run: as §1

[3] = system: PC-3 prostate cancer cells; test: Cancer cell survival (CellTiter-Glo), PC-3; settings: Homo sapiens, PC-3 cells, 72 h
How it was run: as §1

A-431 skin cancer cells = test: Cancer cell survival (CellTiter-Glo), A-431; settings: Homo sapiens, A-431 cells, 72 h
How it was run: as §1

AGS stomach cancer cells = test: Cancer cell survival (CellTiter-Glo), AGS
How it was run: as §1

[4] = Human Regulatory T Cell Differentiation Assay; settings: human, primary naïve CD4+ T cells isolated from PBMCs, 1 uM, read-out: Cell viability % DMSO
Description: Peripheral blood mononuclear cells (PBMCs) from whole blood donated by health volunteers were separated by Ficoll-Paque gradient centrifugation and naïve CD4^+ T cells were subsequently isolated using magnet beads (EasySep™ Human Naïve CD4^+ T Cell Isolation Kit, Cambridge, Mass.). For regulatory T cell (Treg) differentiation assay, naïve CD4^+ T cells were cultured (1-10×10^4 cells) in CTS OpTmizer medium for 6 days and stimulated with 5 ng/ml TGF-β, 100 U/ml IL-2, and ImmunoCult™ Human […] T Cell Activator; Stemcell #10990) with/without Compounds. Cell viability was determined using a viability dye (eBioscience Fixable Viability Dye eFluor 780: ThermoFisher 65-0865-14) at 1:500 dilution. The cells were gated for Treg, defined as Live, CD11c^−, CD14^−, CD19^−, CD8^−, CD4^+, CD3^+, CD25^+, FOXP3^+. Percent (%) Tregs were calculated as percentage of CD4^+, CD25^+, FOXP3^+ cells over total CD4^+ T cells. Statistical analysis was performed with GraphPad Prism Software Using One-Way ANOVA.

[5] = 101 nM, read-out: Cell survival at given concentration
[6] = 318 nM, read-out: Cell survival at given concentration
[7] = 1 μM, read-out: Cell survival at given concentration
[8] = 3 μM, read-out: Cell survival at given concentration
[9] = 10 μM, read-out: Cell survival at given concentration
[10] = 32 μM, read-out: Cell survival at given concentration
[11] = 100 μM, read-out: Cell survival at given concentration
[12] = 316 μM, read-out: Cell survival at given concentration
[13] = 1000 μM, read-out: Cell survival at given concentration

What does the source list for Oc1ccc(C=Cc2cc(O)cc(O)c2)cc1 [resveratrol]?
viability at 0.101 µM (T24 bladder cancer cells; T-24, 101 nM, 72 h, read-out: Cell survival at given concentration): 100%; viability at 0.318 µM (T24 bladder cancer cells; T-24, 318 nM, 72 h, read-out: Cell survival at given concentration): 102%; viability at 1 µM (T24 bladder cancer cells; T-24, 1 μM, 72 h, read-out: Cell survival at given concentration): 100%; viability at 3 µM (T24 bladder cancer cells; T-24, 3 μM, 72 h, read-out: Cell survival at given concentration): 101%; viability at 10 µM (T24 bladder cancer cells; T-24, 10 μM, 72 h, read-out: Cell survival at given concentration): 92%; viability at 32 µM (T24 bladder cancer cells; T-24, 32 μM, 72 h, read-out: Cell survival at given concentration): 1%; viability at 100 µM (T24 bladder cancer cells; T-24, 100 μM, 72 h, read-out: Cell survival at given concentration): 0%; viability at 316 µM (T24 bladder cancer cells; T-24, 316 μM, 72 h, read-out: Cell survival at given concentration): 0%; viability at 1000 µM (T24 bladder cancer cells; T-24, 1000 μM, 72 h, read-out: Cell survival at given concentration): 0%; IC50 (T24 bladder cancer cells; T-24, 72 h, Table 3.1, read-out: 1050): 15.1 µM; viability at 0.101 µM [1, 5]: 100%; viability at 0.318 µM [1, 6]: 101%; viability at 1 µM [1, 7]: 102%; viability at 3 µM [1, 8]: 102%; viability at 10 µM [1, 9]: 101%; viability at 32 µM [1, 10]: 14%; viability at 100 µM [1, 11]: 0%; viability at 316 µM [1, 12]: 0%; viability at 1000 µM [1, 13]: 0%; IC50 ([1]; Table 4.1): 23.9 µM; viability at 0.101 µM (MCF7 breast cancer cells; [5]): 94%; viability at 0.318 µM (MCF7 breast cancer cells; [6]): 96%; viability at 1 µM (MCF7 breast cancer cells; [7]): 99%; viability at 3 µM (MCF7 breast cancer cells; [8]): 99%; viability at 10 µM (MCF7 breast cancer cells; [9]): 95%; viability at 32 µM (MCF7 breast cancer cells; [10]): 96%; viability at 100 µM (MCF7 breast cancer cells; [11]): 85%; viability at 316 µM (MCF7 breast cancer cells; [12]): 27%; viability at 1000 µM (MCF7 breast cancer cells; [13]): 0%; IC50 (MCF7 breast cancer cells; Table 5.1): 212 µM; viability at 0.101 µM [2, 5]: 103%; viability at 0.318 µM [2, 6]: 98%; viability at 1 µM [2, 7]: 98%; viability at 3 µM [2, 8]: 101%; viability at 10 µM [2, 9]: 98%; viability at 32 µM [2, 10]: 65%; viability at 100 µM [2, 11]: 0%; viability at 316 µM [2, 12]: 0%; viability at 1000 µM [2, 13]: 0%; IC50 ([2]; Table 6.1): 37.4 µM; viability at 0.101 µM (A549 lung cancer cells; [5]): 98%; viability at 0.318 µM (A549 lung cancer cells; [6]): 99%; viability at 1 µM (A549 lung cancer cells; [7]): 98%; viability at 3 µM (A549 lung cancer cells; [8]): 98%; viability at 10 µM (A549 lung cancer cells; [9]): 98%; viability at 32 µM (A549 lung cancer cells; [10]): 96%; viability at 100 µM (A549 lung cancer cells; [11]): 88%; viability at 316 µM (A549 lung cancer cells; [12]): 50%; viability at 1000 µM (A549 lung cancer cells; [13]): 0%; IC50 (A549 lung cancer cells; Table 7.1): 317 µM; viability at 0.101 µM [3, 5]: 101%; viability at 0.318 µM [3, 6]: 102%; viability at 1 µM [3, 7]: 101%; viability at 3 µM [3, 8]: 102%; viability at 10 µM [3, 9]: 103%; viability at 32 µM [3, 10]: 96%; viability at 100 µM [3, 11]: 95%; viability at 316 µM [3, 12]: 32%; viability at 1000 µM [3, 13]: 0%; IC50 ([3]; Table 8.1): 248 µM; viability at 0.101 µM (A-431 skin cancer cells; [5]): 101%; viability at 0.318 µM (A-431 skin cancer cells; [6]): 101%; viability at 1 µM (A-431 skin cancer cells; [7]): 102%; viability at 3 µM (A-431 skin cancer cells; [8]): 102%; viability at 10 µM (A-431 skin cancer cells; [9]): 98%; viability at 32 µM (A-431 skin cancer cells; [10]): 87%; viability at 100 µM (A-431 skin cancer cells; [11]): 65%; viability at 316 µM (A-431 skin cancer cells; [12]): 13%; viability at 1000 µM (A-431 skin cancer cells; [13]): 0%; IC50 (A-431 skin cancer cells; Table 9.1): 132 µM; viability at 0.101 µM (AGS stomach cancer cells; 72 h, 101 nM, read-out: Cell survival at given concentration): 100%; viability at 0.318 µM (AGS stomach cancer cells; 72 h, 318 nM, read-out: Cell survival at given concentration): 95%; viability at 1 µM (AGS stomach cancer cells; 72 h, 1 μM, Table 10.1, read-out: Cell survival at given concentration): 101%; viability at 3 µM (AGS stomach cancer cells; 72 h, 3 μM, Table 10.1, read-out: Cell survival at given concentration): 98%; viability at 10 µM (AGS stomach cancer cells; 72 h, 10 μM, Table 10.1, read-out: Cell survival at given concentration): 100%; viability at 32 µM (AGS stomach cancer cells; 72 h, 32 μM, Table 10.1, read-out: Cell survival at given concentration): 101%; viability at 100 µM (AGS stomach cancer cells; 72 h, 100 μM, Table 10.1, read-out: Cell survival at given concentration): 94%; viability at 316 µM (AGS stomach cancer cells; 72 h, 316 μM, read-out: Cell survival at given concentration): 33%; viability at 1000 µM (AGS stomach cancer cells; 72 h, 1000 μM, read-out: Cell survival at given concentration): 0%; IC50 (AGS stomach cancer cells; Table 10.1): 252 µM; viability at 6 days, 1 µM [4]: < 90%
